Like-named read-outs stand apart in the source and are kept apart here.
Tests used:
[1] = molecular target: T1, K-Ras G12S (Homo sapiens, UniProt P01116, G12S); test: HTRF assay of the K-Ras / SOS1 interaction; format: biochemical; details: IC50 (against K-Ras G12D) to IC50 (against K-Ras G12S)
T1 construct: made in house; host or cells: E. coli (e.g., BL21 (DE3))
In short: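 Compounds (duplicates, 10 µM to 0.01 µM) were incubated ≥~10 min with Eu-labelled GST-K-Ras G12S and XL665-labelled His-hSOS1 in HEPES pH 7.4 buffer containing NaCl, DTT, BSA and Igepal. Disruption measured as HTRF emission ratio 665/620 nm, fitted to IC50.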

[2] = system: A549 cells; test: Cell proliferation assay (CellTiter-Glo), K-Ras G12S cells; format: cell-based; details: for IC50: Homo sapiens, A549, A549 cells (K-Ras G12S), read-out: Inhibition of A549 Cells (IC50); for ratio of IC50 against a G12D cell line to IC50 against a G12S cell line: K-Ras G12D cell line such as GP2D relative to K-Ras G12S cell line such as A549, greater than 1, 2, 3, 4, 5, 10, 15 or even greater, 8640 min
Experimental: A549 (ATCC CRL-185) and LS123 (ATCC CRL-255) cell lines comprise a G12S mutation and can be used to assess Ras cellular signaling in vitro, e.g., in response to the compounds herein. A549 culture medium is prepared with RPMI-1640 and 10% heat-inactivated FBS. LS123 culture medium is prepared with RPMI-1640 and 10% heat-inactivated FBS. A CellTiter-Glo (CTG) luminescent based assay (Promega) is used to assess growth of the cells, as a measurement of the ability of the compounds herein to inhibit Ras signaling in the cells. The cells (e.g., 800 per well) are seeded in their respective culture medium in standard tissue culture-treated 384-well format plates (Falcon #08-772-116) or ultra-low attachment surface 384-well format plates (S-Bio # MS-9384WZ). The day after plating, cells are treated with a dilution series (e.g., a 10 point 3-fold dilution series) of the compounds herein (e.g., approximately 40 µl final volume per well). Cell viability can be monitored (e.g., approximately 6 days later) according to the manufacturer's recommended instructions, where the CellTiter-Glo reagent is added (e.g., approximately 10 µl), vigorously mixed, covered, and placed on a plate shaker (e.g., approximately for 20 min) to ensure sufficient cell lysis prior to assessment of luminescent signal. The IC50 values are determined using the four parameter fit. The resulting IC50 value is a measurement of the ability of the compounds herein to reduce cell growth of Ras-driven cells (e.g., tumor cell lines) in vitro and/or in vivo.

[3] = system: GP2D cells; test: Cell proliferation assay (CellTiter-Glo), K-Ras G12D cells; format: cell-based; details: GP2D cells (K-Ras G12D); read-out: Inhibition of GP2D Cells (IC50)
In short: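 CellTiter-Glo luminescence, taken roughly 5 days after dosing, measured growth of G12D-mutant GP2D cells in DMEM/2 mM glutamine/10% FBS. Compound dilution series (e.g., 9 points, 3-fold) added the day after plating. Four-parameter fitting gave IC50.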

T1 sequence (P01116 1-188 isoform P01116-2 G12S): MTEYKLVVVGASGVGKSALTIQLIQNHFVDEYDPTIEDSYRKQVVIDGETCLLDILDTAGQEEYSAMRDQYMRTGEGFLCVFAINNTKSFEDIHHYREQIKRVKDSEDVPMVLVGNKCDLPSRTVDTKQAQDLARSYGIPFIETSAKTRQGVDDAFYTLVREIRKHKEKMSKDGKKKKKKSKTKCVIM

Compound	Ratio of IC50 KRAS G12D vs. IC50 KRAS G12S [1]	IC50 ([2]; bin 500 nM to 5 µM) [µM]	IC50 [3] [µM]	IC50 ([2]; bin ≤ 500 nM) [µM]	ratio of IC50 against a G12D cell line to IC50 against a G12S cell line [2]
N#Cc1c(N)sc2c(F)ccc(-c3c(Cl)cc4c(N5CCC6CN(C(=O)Nc7ncccn7)CCC65)nc(OC[C@@]56CCCN5C[C@H](F)C6)nc4c3F)c12 (single isomer, unassigned) [Compound A271]	A (A: indicates that the ratio of IC50 against KrasG12D vs. IC50 against KrasG12S is 1-fold or greater)	0.5 to 5	–	–	–
N#Cc1c(N)sc2c(F)ccc(-c3c(Cl)cc4c(N5CC6CCC(C5)N6C(=O)n5ccnc5)nc(OC[C@@]56CCCN5C[C@H](F)C6)nc4c3F)c12 [Compound A105, 4-(4-(8-(1H-imidazole-1-carbonyl)-3,8-diazabicyclo[3.2.1]octan-3-yl)-6-chloro-8-fluoro-2-(((2R,7aS)-2-fluorotetrahydro-1H-pyrrolizin-7a(5H)-yl)methoxy)quinazolin-7-yl)-2-amino-7-fluorobenzo[b]thiophene-3-carbonitrile]	–	–	≤ 1	≤ 0.5	–
N#Cc1c(N)sc2c(F)ccc(-c3c(Cl)cc4c(N5CCC6C5CCN6C(=O)n5cncn5)nc(OC[C@@]56CCCN5C[C@H](F)C6)nc4c3F)c12 (stereo partly drawn) [Compound A108, 4-(4-(4-(1H-1,2,4-triazole-1-carbonyl)hexahydropyrrolo[3,2-b]pyrrol-1(2H)-yl)-6-chloro-8-fluoro-2-(((2R,7aS)-2-fluorotetrahydro-1H-pyrrolizin-7a(5H)-yl)methoxy)quinazolin-7-yl)-2-amino-7-fluorobenzo[b]thiophene-3-carbonitrile]	A (A: indicates that the ratio of IC50 against KrasG12D vs. IC50 against KrasG12S is 1-fold or greater)	–	≤ 1	≤ 0.5	–
Nc1nc2c(-c3c(Cl)cc4c(N5CC6CCC(C5)N6C(=O)n5cncn5)nc(OC[C@@]56CCCN5C[C@H](F)C6)nc4c3F)ccc(F)c2s1 [Compound A111, (3-(7-(2-amino-7-fluorobenzo[d]thiazol-4-yl)-6-chloro-8-fluoro-2-(((2R,7aS)-2-fluorotetrahydro-1H-pyrrolizin-7a(5H)-yl)methoxy)quinazolin-4-yl)-3,8-diazabicyclo[3.2.1]octan-8-yl)(1H-1,2,4-triazol-1-yl)methanone]	A (A: indicates that the ratio of IC50 against KrasG12D vs. IC50 against KrasG12S is 1-fold or greater)	0.5 to 5	≤ 1	–	–
Cc1nc(C)n(C(=O)N2CC3(CCCCN(c4nc(OC[C@@]56CCCN5C[C@H](F)C6)nc5c(F)c(-c6ccc(F)c7sc(N)c(C#N)c67)c(Cl)cc45)C3)C2)n1 [Compound A116, 2-amino-4-(6-chloro-4-(2-(3,5-dimethyl-1H-1,2,4-triazole-1-carbonyl)-2,6-diazaspiro[3.6]decan-6-yl)-8-fluoro-2-(((2R,7aS)-2-fluorotetrahydro-1H-pyrrolizin-7a(5H)-yl)methoxy)quinazolin-7-yl)-7-fluorobenzo[b]thiophene-3-carbonitrile]	–	–	≤ 1	≤ 0.5	–
C#Cc1c(F)ccc2cc(O)cc(-c3ncc4c(N5CC6CCC(C5)N6C(=O)n5cc(C#N)cn5)nc(OC[C@@]56CCCN5C[C@H](F)C6)nc4c3F)c12 [Compound A143, 1-(3-(7-(8-ethynyl-7-fluoro-3-hydroxynaphthalen-1-yl)-8-fluoro-2-(((2R,7aS)-2-fluorotetrahydro-1H-pyrrolizin-7a(5H)-yl)methoxy)pyrido[4,3-d]pyrimidin-4-yl)-3,8-diazabicyclo[3.2. 1]octane-8-carbonyl)-1H-pyrazole-4-carbonitrile]	–	–	≤ 1	≤ 0.5	–
Nc1nc2c(-c3c(Cl)cc4c(N5CC6CN(C(=O)n7cncn7)C6C5)nc(OC[C@@]56CCCN5C[C@H](F)C6)nc4c3F)ccc(F)c2s1 (stereo partly drawn) [Compound A177, (3-(7-(2-amino-7-fluorobenzo[d]thiazol-4-yl)-6-chloro-8-fluoro-2-(((2R,7aS)-2-fluorotetrahydro-1H-pyrrolizin-7a(5H)-yl)methoxy)quinazolin-4-yl)-3,6-diazabicyclo[3.2.0]heptan-6-yl)(1H-1,2,4-triazol-1-yl)methanone]	–	0.5 to 5	≤ 1	–	–
Cc1ncn(C(=O)N2CC3CN(c4nc(OC[C@@]56CCCN5C[C@H](F)C6)nc5c(F)c(-c6ccc(F)c7sc(N)c(C#N)c67)c(Cl)cc45)CC32)n1 (stereo partly drawn) [Compound A196, 2-amino-4-(6-chloro-8-fluoro-2-(((2R,7aS)-2-fluorotetrahydro-1H-pyrrolizin-7 a(5H)-yl)methoxy)-4-(6-(3-methyl-1H-1,2,4-triazole-1-carbonyl)-3,6-diazabicyclo[3.2.0]heptan-3-yl)quinazolin-7-yl)-7-fluorobenzo[b]thiophene-3-carbonitrile]	–	–	≤ 1	≤ 0.5	–
N#Cc1c(N)sc2c(F)ccc(-c3c(Cl)cc4c(N5CC6CCC(C5)N6C(=O)Nc5ncccn5)nc(OC[C@@]56CCCN5C[C@H](F)C6)nc4c3F)c12 [Compound A215, 3-(7-(2-amino-3-cyano-7-fluorobenzo[b]thiophen-4-yl)-6-chloro-8-fluoro-2-(((2R,7aS)-2-fluorotetrahydro-1H-pyrrolizin-7a(5H)-yl)methoxy)quinazolin-4-yl)-N-(pyrimidin-2-yl)-3,8-diazabicyclo[3.2. 1]octane-8-carboxamide]	–	–	≤ 1	≤ 0.5	–
N#Cc1c(N)sc2c(F)ccc(-c3c(Cl)cc4c(N5CCC6CN(C(=O)Nc7ncccn7)CCC65)nc(OC[C@@]56CCCN5C[C@H](F)C6)nc4c3F)c12 (stereo partly drawn) [Compound A251, 1-(7-(2-amino-3-cyano-7-fluorobenzo[b]thiophen-4-yl)-6-chloro-8-fluoro-2-(((2R,7aS)-2-fluorotetrahydro-1H-pyrrolizin-7a(5H)-yl)methoxy)quinazolin-4-yl)-N-(pyrimidin-2-yl)octahydro-5H-pyrrolo[3,2-c]pyridine-5-carboxamide]	–	–	1 to 10	≤ 0.5	greater than 1
N#Cc1cnn(C(=O)N2C3CCC2CN(c2nc(OC[C@@]45CCCN4C[C@H](F)C5)nc4c(F)c(-c5ccc(F)c6sc(N)nc56)c(Cl)cc24)C3)c1 [Compound A253, 1-(3-(7-(2-amino-7-fluorobenzo[d]thiazol-4-yl)-6-chloro-8-fluoro-2-(((2R,7aS)-2-fluorotetrahydro-1H-pyrrolizin-7a(5H)-yl)methoxy)quinazolin-4-yl)-3,8-diazabicyclo[3.2. 1]octane-8-carbonyl)-1H-pyrazole-4-carbonitrile]	–	0.5 to 5	≤ 1	–	–
Cc1nc(C(C)C)nn1C(=O)N1CC2(CCCCN(c3nc(OC[C@@]45CCCN4C[C@H](F)C5)nc4c(F)c(-c5ccc(F)c6sc(N)c(C#N)c56)c(Cl)cc34)C2)C1 [Compound A305, 2-amino-4-(6-chloro-8-fluoro-2-(((2R,7aS)-2-fluorotetrahydro-1H-pyrrolizin-7 a(5H)-yl)methoxy)-4-(2-(3-isopropyl-5-methyl-1H-1,2,4-triazole-1-carbonyl)-2,6-diazaspiro[3.6]decan-6-yl)quinazolin-7-yl)-7-fluorobenzo[b]thiophene-3-carbonitrile]	–	–	1 to 10	≤ 0.5	greater than 1
N#Cc1c(N)sc2c(F)ccc(-c3c(Cl)cc4c(N5CC6CN(C(=O)n7cncn7)C6C5)nc(OC[C@@]56CCCN5C[C@H](F)C6)nc4c3F)c12 (stereo partly drawn) [Compound A306, 4-(4-(6-(1H-1,2,4-triazole-1-carbonyl)-3,6-diazabicyclo[3.2.0]heptan-3-yl)-6-chloro-8-fluoro-2-(((2R,7aS)-2-fluorotetrahydro-1H-pyrrolizin-7a(5H)-yl)methoxy)quinazolin-7-yl)-2-amino-7-fluorobenzo[b]thiophene-3-carbonitrile]	–	0.5 to 5	≤ 1	–	–
